Results from patent publication US9339508B2, “Use of 3-methoxy-pregnenolone for the preparation of a drug for treating a traumatic brain injury” (MAPREG, priority 2003, dated 2016).

Columns and labels:
[1] = biological target: purified tubulin and MAP2 (Homo sapiens, UniProt P11137); experiment: MAP2-induced polymerization of microtubules in vitro (optical density at 345 nm); assay type: biochemical
Procedure: Purified MAP2 and tubulin are mixed in the presence of GTP at 4° C. in a spectrophotometer cuvette. Polymerization is induced by heating at 37° C. and is followed by the increase in optical density (OD) which indicates the quantity of polymers formed.
This in vitro test measures the effect of molecules on the MAP2-induced polymerization of microtubules. This polymerization occurs when MAP2 proteins and tubulin are mixed at adequate concentrations in the presence of GTP. It is accompanied by an increase in optical density measured at 345 nm for 15 to 30 minutes with a UNICON spectrophotometer thermostated at 37° C. (FIG. 1).
Activity is measured by the increase in optical density at 345 nm of a mixture of purified tubulin and MAP2, incubated at 37° C. in the presence of GTP.

[2] = system: α-tubulin in rat hippocampus; experiment: Microtubule dynamics in rat hippocampus (Tyr/Glu-Tub ratio, Acet-Tub); assay type: in vivo; conditions: 10 mg/kg subcutaneously, single administration
From the text: Mean±SEM, n=6 per group. **P<0.01, *P<0.5 vs sesame oil.
The effects produced by neurosteroids were compared with those produced by acute administration of the antidepressant drug fluoxetine (selective serotonin reuptake inhibitor SSRI).
Neurosteroids and 3-Methoxy-PREG (43B) Levels

spinophilin = experiment: Western blot of spinophilin in cortex and hippocampus after CCI; assay type: in vivo, rat; conditions: day 35, 10 mg/kg or 20 mg/kg, first injection 2 h post-trauma, injured cortex and hippocampus and contralaterally
Procedure: (§1) CCI was performed with an electromagnetic impact device as described (MyNeurolab, St. Louis, Mo.; Brody et al, 2007). Anesthesized rats were subjected to a single right lateral CCI, with the following parameters impact centered 4.0 mm anterior to lambda and 4.5 mm […] of midline, within the craniotomy of the animal. The impact was set at a velocity of 4 m/s with a sustained depression of 200 ms, using a 5.0 mm tip.
(§2) Samples were analyzed by Western-blot at day 35 post-trauma (D35) to evaluate the effects of MAP4343 on: MAP2 (the target of MAP4343 and a modulator of microtubule function), the post-synaptic markers PSD95 and spinophilin, the pre-synaptic marker synaptophysin, and the axonal growth/integrity marker […].
(§3) Western blot was performed on cortex and hippocampus of TBI-injured animals receiving the first injection of MAP4343 (at 10 mg/kg or 20 mg/kg) or vehicle (sesame oil) 2 h after injury.
(§4) The expression level of various neuronal brain markers of plasticity was measured at day 35 post-trauma by western-blots in the cortex and hippocampus of left uninjured and right injured cerebral hemispheres of CCI traumatized animals receiving either vehicle (sesame oil, CCI-D0) or 3-methoxy-PREG (MAP4343) at 10 mg/kg (CCI-D1) or 20 mg/kg (CCI-D2), with first MAP4343 injection 2 h post-trauma.

[3] = biological target: T1, microtubule-associated MAP2 (Rattus norvegicus, UniProt P15146); experiment: Immunolabeling of microtubule-associated MAP2 in PC12 cells; assay type: cell-based; conditions: 20 μM, NGF 10 ng/ml
T1 construct: endogenous in cells; host or cells: PC12 cells
T1 sequence (P15146 whole entry): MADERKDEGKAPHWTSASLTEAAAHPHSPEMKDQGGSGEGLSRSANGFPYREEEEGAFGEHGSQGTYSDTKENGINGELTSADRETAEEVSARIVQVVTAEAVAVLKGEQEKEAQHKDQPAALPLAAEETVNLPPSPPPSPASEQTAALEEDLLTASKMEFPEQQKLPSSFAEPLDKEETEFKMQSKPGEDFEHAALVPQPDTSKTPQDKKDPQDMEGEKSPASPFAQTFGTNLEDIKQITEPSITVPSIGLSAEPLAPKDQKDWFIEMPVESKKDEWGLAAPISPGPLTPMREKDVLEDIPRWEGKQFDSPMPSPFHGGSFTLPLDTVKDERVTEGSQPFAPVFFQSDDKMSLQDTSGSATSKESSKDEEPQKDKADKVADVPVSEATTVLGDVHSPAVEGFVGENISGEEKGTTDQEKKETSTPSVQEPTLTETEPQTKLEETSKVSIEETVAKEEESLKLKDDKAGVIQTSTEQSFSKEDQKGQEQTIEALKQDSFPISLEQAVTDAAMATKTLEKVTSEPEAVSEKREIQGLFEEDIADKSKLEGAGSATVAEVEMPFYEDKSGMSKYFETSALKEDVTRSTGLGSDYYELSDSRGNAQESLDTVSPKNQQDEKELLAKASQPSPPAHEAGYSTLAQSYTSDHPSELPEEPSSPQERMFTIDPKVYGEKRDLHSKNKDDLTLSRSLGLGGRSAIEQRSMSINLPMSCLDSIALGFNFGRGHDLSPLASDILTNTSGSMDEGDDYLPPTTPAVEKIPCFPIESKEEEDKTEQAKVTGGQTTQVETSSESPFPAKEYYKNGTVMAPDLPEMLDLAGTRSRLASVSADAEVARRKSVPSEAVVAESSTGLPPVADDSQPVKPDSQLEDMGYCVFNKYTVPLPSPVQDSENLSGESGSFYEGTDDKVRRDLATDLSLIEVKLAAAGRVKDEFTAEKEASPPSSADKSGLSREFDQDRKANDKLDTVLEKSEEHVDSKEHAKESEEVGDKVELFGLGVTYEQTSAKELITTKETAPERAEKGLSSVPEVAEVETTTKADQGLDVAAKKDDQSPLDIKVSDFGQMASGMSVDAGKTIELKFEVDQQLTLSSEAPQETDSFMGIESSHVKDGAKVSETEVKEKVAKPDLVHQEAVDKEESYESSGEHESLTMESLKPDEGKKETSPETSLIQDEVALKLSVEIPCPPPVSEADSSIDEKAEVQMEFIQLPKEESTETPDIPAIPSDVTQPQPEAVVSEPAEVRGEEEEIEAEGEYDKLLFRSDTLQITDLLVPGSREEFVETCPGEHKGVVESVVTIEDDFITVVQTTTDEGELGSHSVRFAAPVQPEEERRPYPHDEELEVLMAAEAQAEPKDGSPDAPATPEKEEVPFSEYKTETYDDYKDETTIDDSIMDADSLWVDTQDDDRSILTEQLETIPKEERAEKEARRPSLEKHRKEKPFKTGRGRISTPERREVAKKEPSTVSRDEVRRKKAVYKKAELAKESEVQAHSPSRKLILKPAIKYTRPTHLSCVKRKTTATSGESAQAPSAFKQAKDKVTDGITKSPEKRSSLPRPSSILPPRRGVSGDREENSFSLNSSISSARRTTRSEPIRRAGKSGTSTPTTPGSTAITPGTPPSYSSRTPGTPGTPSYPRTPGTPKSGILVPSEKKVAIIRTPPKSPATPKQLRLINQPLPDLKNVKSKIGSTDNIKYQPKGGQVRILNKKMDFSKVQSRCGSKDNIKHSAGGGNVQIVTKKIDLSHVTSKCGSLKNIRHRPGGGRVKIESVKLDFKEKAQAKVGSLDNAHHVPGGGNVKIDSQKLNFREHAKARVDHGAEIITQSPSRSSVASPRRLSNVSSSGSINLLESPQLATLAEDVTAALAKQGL
From the text: They were fixed and exposed to anti-MAP2 antibodies that reveal microtubule-associated MAP2 esclusively.
To rest the effect of selected molecules on neuritic growth, we first used the PC12 line, which has long been employed in neurobiological research. In the presence of NOF (nerve growth factor), the cells of this line, which arise from a rat pheochromocytoma, form neuritic extensions containing MAP-associated microtubules. The growth of these elongations is stimulated by the addition of PREG. […] The screening of other natural or synthetic steroids made it possible to select several molecules presenting greater effects than that of PRIG (FIG. 2). In particular, the addition of molecule 43B, which can be synthesized easily from PRIG, caused a spectacular increase (reaching as high as 500%) in the length of neurites formed in the presence of NOF (FIG. 3). This neurite growth accompanies the stimulation by 43-3 of the association of MAP2 to the microtubules (FIG. 4).

PC12 cell line = experiment: Cellular toxicity on the PC12 cell line; assay type: cell-based, rat; conditions: concentrations as high as solubility limits
Procedure: Cellular toxicity tests are carried out routinely on the PC12 cell line.

PSD95 = experiment: Western blot of PSD95 in cortex and hippocampus after CCI; assay type: in vivo, rat; conditions: day 35, 20 mg/kg, first injection 2 h post-trauma, ipsilateral injured cortex and hippocampus, contralateral cortex
Procedure: as §1, §2, §3, §4

CCI injured hippocampi = experiment: Histological analysis of the hippocampus size after CCI; assay type: in vivo, rat; conditions: day 35, 10 mg/kg and 20 mg/kg, first injection 2 h after TBI
Procedure: as §1
Frozen sections were stained with cresyl violet. For each section analyzed, the size of the hippocampus was determined by first outlining all remaining tissue of each section taken at 500 μm intervals through the lesion (right hemisphere) or contra lateral hemisphere, thus providing a total tissue area (mm2) of the two hemispheres for each section. Then, the areas of sections were summed per hemisphere.

GAP43 = experiment: Western blot of GAP43 in cortex and hippocampus after CCI; assay type: in vivo, rat; conditions: day 35, injured cortex (20 mg/kg only), hippocampus and non-injured cortex (both doses)
Procedure: as §1, §2, §3, §4

[4] = system: rats subjected to spinal cord compression; experiment: Spinal cord compression model, BBB score; assay type: in vivo, rat; conditions: 12 mg/kg/day subcutaneous for 2 weeks; as of post-operation day 7
Procedure: FIG. 7: Effect of molecule 43B on locomotor recovery following spinal cord compression in rats. Animal locomotion was evaluated in a blind format during the 1-28 day post-operative period using the BBB score which evaluates the degree of paralysis (higher values correspond to better recovery). Statistical significance: * indicates p<0.001; ** indicates p<0.0001.
To determine the neuroprotective effects of the molecules tested, a spinal cord compression model is used. This model involves the total paralysis of the animals in the first few days following the operation. This period of paralysis is followed of a phase of approximately three weeks during which the animals partially recover their motor function. The study of this recovery using a simple and precise functional test based on observation of the animals (the BBB score) makes it possible to study the speed and the degree of recovery of the animals, with and without treatment.
Two groups of rats were subjected to spinal cord compression. Then, daily for 2 weeks, the animals received a subcutaneous injection containing either sesame oil alone (control group, n=20), or sesame oil containing molecule 43B (43B group, n=20; 12 mg/kg/day). The first injection was given 5 minutes after spinal cord compression. Locomotion of the animals, using BBB scores, was evaluated in a blind format on post-operation days 1, 4, 7, 14, 21, and 28. […]

[5] = 40 μM, compared to solvent alone

Chain of purified tubulin and MAP2 (P11137 whole entry): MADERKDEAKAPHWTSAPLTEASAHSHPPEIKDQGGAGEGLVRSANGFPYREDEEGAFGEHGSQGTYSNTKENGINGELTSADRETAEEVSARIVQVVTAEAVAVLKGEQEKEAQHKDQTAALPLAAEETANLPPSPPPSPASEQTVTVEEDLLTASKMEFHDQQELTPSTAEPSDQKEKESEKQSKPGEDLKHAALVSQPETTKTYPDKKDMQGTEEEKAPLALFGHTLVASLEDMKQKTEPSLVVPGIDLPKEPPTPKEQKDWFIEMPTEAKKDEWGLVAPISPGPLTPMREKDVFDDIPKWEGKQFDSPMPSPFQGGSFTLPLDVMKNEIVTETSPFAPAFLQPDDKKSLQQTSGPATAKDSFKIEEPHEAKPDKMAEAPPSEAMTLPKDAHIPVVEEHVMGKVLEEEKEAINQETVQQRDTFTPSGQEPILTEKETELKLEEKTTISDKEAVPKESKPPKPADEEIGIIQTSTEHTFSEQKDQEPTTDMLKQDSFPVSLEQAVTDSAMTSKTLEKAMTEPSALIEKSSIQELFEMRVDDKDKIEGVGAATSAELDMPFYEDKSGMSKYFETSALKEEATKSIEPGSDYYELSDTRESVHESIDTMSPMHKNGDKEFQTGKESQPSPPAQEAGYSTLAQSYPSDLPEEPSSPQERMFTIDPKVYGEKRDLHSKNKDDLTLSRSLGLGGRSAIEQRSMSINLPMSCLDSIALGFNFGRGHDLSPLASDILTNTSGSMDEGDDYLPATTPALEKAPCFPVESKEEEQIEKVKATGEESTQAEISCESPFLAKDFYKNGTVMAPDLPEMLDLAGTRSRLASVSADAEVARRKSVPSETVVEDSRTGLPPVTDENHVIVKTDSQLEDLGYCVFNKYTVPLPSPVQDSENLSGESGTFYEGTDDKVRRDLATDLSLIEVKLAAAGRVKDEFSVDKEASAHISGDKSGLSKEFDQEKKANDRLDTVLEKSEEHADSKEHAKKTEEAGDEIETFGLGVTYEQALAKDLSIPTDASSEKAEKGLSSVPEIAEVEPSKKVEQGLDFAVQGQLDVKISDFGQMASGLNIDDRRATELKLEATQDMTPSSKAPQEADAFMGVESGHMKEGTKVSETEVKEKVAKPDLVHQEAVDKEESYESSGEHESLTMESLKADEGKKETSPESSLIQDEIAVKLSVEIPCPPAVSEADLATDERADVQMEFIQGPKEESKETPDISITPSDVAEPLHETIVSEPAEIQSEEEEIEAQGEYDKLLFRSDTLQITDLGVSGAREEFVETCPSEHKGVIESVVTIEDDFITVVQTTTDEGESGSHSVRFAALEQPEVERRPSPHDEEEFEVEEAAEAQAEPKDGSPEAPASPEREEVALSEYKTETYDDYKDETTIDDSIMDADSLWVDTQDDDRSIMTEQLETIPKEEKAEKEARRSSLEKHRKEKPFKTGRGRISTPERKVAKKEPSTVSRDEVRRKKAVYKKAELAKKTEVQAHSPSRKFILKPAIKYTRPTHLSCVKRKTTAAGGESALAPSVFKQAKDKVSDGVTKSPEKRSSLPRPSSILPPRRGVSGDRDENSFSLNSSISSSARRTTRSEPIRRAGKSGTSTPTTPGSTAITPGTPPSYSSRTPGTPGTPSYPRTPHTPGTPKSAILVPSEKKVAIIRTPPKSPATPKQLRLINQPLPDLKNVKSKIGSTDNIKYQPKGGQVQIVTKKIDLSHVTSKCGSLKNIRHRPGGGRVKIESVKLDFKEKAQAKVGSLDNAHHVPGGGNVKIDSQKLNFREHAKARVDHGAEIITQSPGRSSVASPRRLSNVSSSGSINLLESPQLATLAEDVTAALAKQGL

With `CO[C@H]1CC[C@@]2(C)C(=CC[C@H]3[C@@H]4CC[C@H](C(C)=O)[C@@]4(C)CC[C@@H]32)C1` [3-methoxy-PREG, 3β-methoxy-pregna-5-ene-20-one] the microtubule polymerization [1] was “activates microtubule polymerization”, the “Lag time of microtubule polymerization” value [1, 5] was “decreased” and the “polymerization rate and quantity of microtubules” value [1, 5] was “clearly increase”. For the same compound, the “Acet-Tub (stable acetylated α-tubulin)” value [2] was “significantly decreased”, the Tyr/Glu-Tub ratio ([2]; 3 h) was “significantly increased” and the spinophilin expression (spinophilin) was “increase in spinophilin expression”. The “association of MAP2 to the microtubules” value [3] was “stimulation”, the cellular toxicity (PC12 cell line) was “do not demonstrate toxicity” and the PSD95 expression (PSD95) was “increase in PSD95 expression”. For the same compound, the “size of the injured hippocampus” value (CCI injured hippocampi) was “significantly increases the size of the injured hippocampus”, the GAP-43 expression (GAP43) was “increased GAP-43 expression” and the “locomotion, BBB score” value [4] was “quite significantly higher than the control animals”.
